The record followed here is patent US20050209289A1, “Method for vascular dysregulation” (priority 2004, published 2005).

This assay has as its system clinical patients. Put plainly: Clinical patient encounters treated with vascular dysregulation techniques (trigger elimination plus calcium channel blocker and/or antiemetic); case reports. In kind it is in vivo, human. To be noted: person.

SMILES strings stand for the structures.

Procedure: At Step 36, a personal and family medical history of a patient is collected during a patient encounter. […] At Step 42, a list of environmental triggers for the one or more determined dysregulation pathways to be avoided is prepared for the patient. At Step 44, a list of medical triggers for the one or more determined dysregulation pathway to be avoided is prepared for the patient. At Step 46, the patient's current medication profile, if any, is adjusted for the one or more determined dysregulation pathways, thereby treating the medical condition via the one or more determined dysregulation pathways.
At Step 50, a test is conducted to determine whether a patient has a chronic medical condition and has one or more common symptoms based on a personal and medical history collected during a patient encounter. […] The vascular dysregulation techniques include eliminating environmental triggers, eliminating medical triggers and adjusting patient's current medication profile.

In the case of `COc1ccc([C@@H]2Sc3ccccc3N(CCN(C)C)C(=O)[C@@H]2OC(C)=O)cc1` [diltiazem], the “Cold toes and fingers, Patient E” value (cold toes and fingers, migraine headaches, off caffeine) was “obtained warm fingers and toes”. Besides, the “Severe headaches and insomnia, Patient H” value (coffee and diet sodas eliminated, daily dose) was “severe headaches were eliminated and they are sleeping soundly”. Further, the “Singing voice (unexpected effect), Patient E” value (off caffeine, presumed secondary to decreased post-nasal drip and nasal congestion) is on record as “significantly stronger singing voice”.
